Laboratory results published in PubChem BioAssay (NCI).
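In this assay, cells in 96-well plates receive the compound at five concentrations for 48 hours. Endpoints are linearly interpolated between the surrounding concentrations. Definition used: TGI = concentration required for complete inhibition of growth.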

Columns and labels:
Experiment in all cases: NCI anticancer screen, dose series, 48 h
A498 renal = system: A498 renal
DU-145 prostate = system: DU-145 prostate
HCT-116 colon = system: HCT-116 colon
HOP-62 NSCLC = system: HOP-62 NSCLC
LOX IMVI melanoma = system: LOX IMVI melanoma
M14 melanoma = system: M14 melanoma
MCF7 breast = system: MCF7 breast
SK-MEL-28 melanoma = system: SK-MEL-28 melanoma
TK-10 renal = system: TK-10 renal
U251 CNS = system: U251 CNS
UACC-62 melanoma = system: UACC-62 melanoma

| SMILES | TGI (A498 renal) [µM] | TGI (DU-145 prostate) [µM] | TGI (HCT-116 colon) [µM] | TGI (HOP-62 NSCLC) [µM] | TGI (LOX IMVI melanoma) [µM] | TGI (M14 melanoma) [µM] | TGI (MCF7 breast) [µM] | TGI (SK-MEL-28 melanoma) [µM] | TGI (TK-10 renal) [µM] | TGI (U251 CNS) [µM] | TGI (UACC-62 melanoma) [µM] |
| --- | --- | --- | --- | --- | --- | --- | --- | --- | --- | --- | --- |
| Cc1cc(S(=O)(=O)Nc2nc(N)n(C)n2)c(S)cc1Cl | > 10 | > 10 | > 10 | > 10 | > 10 | > 10 | > 10 | > 10 | > 10 | > 10 | > 10 |
| O=S(=O)(Nc1ccccc1S(=O)(=O)c1ccccc1)c1ccccc1 | > 100 | > 100 | > 100 | > 100 | > 100 | > 100 | > 100 | > 100 | > 100 | > 100 | > 100 |
| Cc1c(-c2ccccc2)n(C)c2cn[nH]c(=O)c12 | > 100 | > 100 | > 100 | 80.3 | 38.3 | > 100 | > 100 | > 100 | > 100 | > 100 | > 100 |
| Cc1cc2c3c(ccc4ncc(c43)CN2c2ccc(NS(C)(=O)=O)cc2)[nH]1 | > 100 | > 100 | 44.1 | 46.1 | > 100 | > 100 | > 100 | > 100 | 73.1 | > 100 | > 100 |
| COc1cc(CNC(=O)CCCCCCCC/C=C/Br)ccc1O | > 10 | > 10 | > 10 | > 10 | > 10 | > 10 | > 10 | > 10 | > 10 | > 10 | > 10 |
| CCCNc1[nH]c(C(C)=O)c(N)c1C(=S)Nc1ccccc1 | > 100 | > 100 | > 100 | > 100 | 63.4 | 36.8 | 45.4 | 68.3 | > 100 | > 100 | 41.6 |
| COc1cc2cc(C(=O)N3CC(COS(C)(=O)=O)c4c3cc([N+](=O)[O-])c3ccccc43)[nH]c2c(OC)c1OC (stereo unspecified) | 53 | > 22.4 | 15.6 | > 31.6 | > 100 | > 31.6 | > 31.6 | > 31.6 | > 31.6 | > 31.6 | > 31.6 |
| Nc1nc(Cl)c2ncn(Cc3ccccc3CCl)c2n1 | 44.3 | 32.3 | > 100 | 62.3 | 21.9 | 40.1 | 24.3 | 20.7 | 36.7 | 13.4 | 4.33 |
| Nc1nc(Nc2ccc(Cl)cc2)sc1C(=O)c1cc2ccccc2oc1=O | 93.7 | > 100 | > 100 | 42.7 | > 100 | > 100 | > 100 | > 100 | > 100 | > 100 | > 100 |
| COc1ccc(OC)c(C2CCc3cnc4nc(N)nc(N)c4c3C2)c1 (stereo unspecified) | > 100 | > 100 | > 100 | > 100 | > 100 | > 100 | > 100 | > 100 | > 100 | > 100 | > 100 |
| CC[C@H](CCCCC1CC[C@@H]2CC(=O)C[C@H]12)OC (stereo partly specified) | > 100 | > 100 | > 100 | > 100 | > 100 | > 100 | > 100 | > 100 | > 100 | > 100 | > 100 |
| O=[N+]([O-])c1cc(Cl)ccc1S(=O)(=O)c1ccccc1 | > 100 | > 100 | > 100 | > 100 | > 100 | > 100 | > 100 | > 100 | > 100 | > 100 | > 100 |
| CCCCNc1nc(SC)nc2nc[nH]c12 | > 89.2 | > 100 | > 100 | > 100 | > 100 | > 100 | > 100 | > 100 | > 100 | > 100 | > 100 |
| COc1cc2c[n+](C)c3c4ccccc4ccc3c2cc1OC | > 65.2 | 14 | > 67.7 | 37.4 | 45 | 42.6 | > 100 | 18.1 | > 100 | 10.3 | 18 |
| COc1cc2c(cc1OC)-c1cc3ccccc3c(=O)n1CCC2 | 31.5 | > 66 | > 38.6 | > 75.3 | 13.7 | > 59.1 | > 89.5 | > 73.6 | > 100 | > 65.7 | 36.5 |
| C=CCCCC1(C)CCCCNC1=O (stereo unspecified) | > 10 | > 10 | > 10 | > 10 | > 10 | > 10 | > 10 | > 10 | > 10 | > 10 | > 10 |

| SMILES | TGI (A498 renal) [µM] | TGI (DU-145 prostate) [µM] | TGI (HCT-116 colon) [µM] | TGI (HOP-62 NSCLC) [µM] | TGI (LOX IMVI melanoma) [µM] | TGI (M14 melanoma) [µM] | TGI (MCF7 breast) [µM] | TGI (SK-MEL-28 melanoma) [µM] | TGI (TK-10 renal) [µM] | TGI (U251 CNS) [µM] | TGI (UACC-62 melanoma) [µM] |
| --- | --- | --- | --- | --- | --- | --- | --- | --- | --- | --- | --- |
| COc1cc(Cn2c3c(c4cc(O)ccc42)C(=O)c2ccccc2C3=O)cc(OC)c1 | 38.6 | 60.6 | 12.7 | 8.78 | > 100 | 67.5 | 50.6 | 28.4 | 34.9 | 18.6 | 7.64 |
| COc1ccc(-c2nc3ccc(C)cc3o2)c(OC)c1 | 46.5 | 50.5 | 35.8 | > 56 | 31 | 35.7 | > 100 | > 100 | 76.5 | 65 | 70.2 |
| C[C@H](CCc1nc(C#N)c(N)o1)[C@H]1CC[C@H]2[C@@H]3[C@@H](O)CC4C[C@@H](O)CC[C@]4(C)[C@H]3C[C@@H](O)[C@]12C (stereo partly specified) | > 100 | > 76.3 | 50 | > 54.4 | 29.2 | > 75.8 | > 95.4 | 47.2 | > 68.1 | 49.5 | 30.5 |
| CC(C)(C)OC(=O)C(C1NC(C(=O)O)C(C)(C)S1)N1C(=O)c2ccccc2C1=O (stereo unspecified) | > 100 | > 100 | > 100 | > 100 | > 100 | > 100 | > 100 | > 100 | > 100 | > 100 | > 100 |
| Cn1cc(-c2ccc(CCOC3CCCCO3)cc2)c2c(C#N)cccc21 (stereo unspecified) | > 100 | > 100 | > 100 | > 100 | > 100 | > 100 | > 100 | 42.4 | > 100 | > 100 | > 100 |
| CC(C)(C)SC1=CCC[C@@H](P(=O)(c2ccccc2)c2ccccc2)[C@@H]2CCC[C@@H]12 | 29.4 | 39.8 | 27.3 | 31.8 | 33.5 | 29.5 | 31.1 | 54.6 | 32.3 | 33.3 | 24.9 |
| CS(=O)(=O)C(=Cc1ccccc1Cl)S(C)(=O)=O | > 100 | > 100 | > 100 | > 100 | > 100 | > 100 | > 100 | > 100 | > 100 | > 100 | > 100 |
| CN1N=C(c2ccncc2)OC1c1ccc(Cl)c(Cl)c1 (stereo unspecified) | > 100 | > 100 | > 100 | > 100 | > 100 | > 100 | > 100 | > 100 | > 100 | > 100 | > 100 |
| Cc1ccc(S(=O)(=O)n2ccn3c(=O)cc(C)nc23)cc1 | > 10 | > 10 | > 10 | > 10 | > 10 | > 10 | > 10 | > 10 | > 10 | > 10 | > 10 |
| COC(=O)C1=NN2c3ccccc3CN([C@@H](C)c3ccccc3)C(=O)[C@@H]2C1 | > 100 | > 100 | > 100 | > 100 | 77.1 | 57.5 | > 100 | > 100 | > 100 | > 100 | 66.8 |
| Cn1ncc2c(NCCc3ccccc3)nc(Cl)nc21 | 45.5 | > 100 | > 100 | 81.3 | > 100 | 39.7 | > 100 | 76.4 | 65 | > 100 | 45.1 |
| COc1cc(OC)c(/C=N/N=C(\N)NO)c(OC)c1 | > 100 | > 100 | > 100 | > 100 | > 100 | > 100 | > 100 | > 100 | > 100 | > 100 | > 100 |
| CCOC(=O)c1sc2nc(SC)nc(Nc3ccc(OC)c(OC)c3)c2c1N | 37.3 | > 100 | > 100 | 26 | > 100 | > 100 | > 100 | 52.7 | 76.4 | > 100 | > 100 |
| CCC(=S)N(C)O | > 100 | > 100 | 30.9 | > 95.3 | 51.8 | > 100 | > 100 | > 100 | > 95.3 | > 100 | 78.3 |
| COC(=O)C(Cc1ccccc1)NS(=O)(=O)c1ccc(-c2c3nc(c(-c4ccc(S(=O)(=O)NC(Cc5ccccc5)C(=O)OC)cc4)c4ccc([nH]4)c(-c4ccc(S(=O)(=O)NC(Cc5ccccc5)C(=O)OC)cc4)c4nc(c(-c5ccc(S(=O)(=O)NC(Cc6ccccc6)C(=O)OC)cc5)c5ccc2[nH]5)C=C4)C=C3)cc1 (stereo unspecified) | > 100 | > 100 | > 100 | > 100 | > 100 | > 100 | > 100 | > 100 | > 100 | > 100 | > 100 |
